Patent US5605929A, “Methods and compositions for inhibiting 5α-reductase activity” (priority 1995, dated 1997)

Experiments:
[1] = tested on: prostate and preputial organ; test: Catechins ip 7 days, large rats; type: in vivo, rat
Description: Male Sprague Dawley rats, 172±20 g body weight, were used. Each group had 5 rats. […] The control rats received 0.3 ml of 30% ethanol.

[2] = tested on: human prostate cancer (PC3 and LNCaP) cells; test: 5α-reduction of testosterone by human prostate cancer cells; type: cell-based
[3] = target: T1, human 5α-reductase isozyme type 1 (Homo sapiens, UniProt P18405); test: 4-[14C]testosterone reduction, human type 1 isozyme; type: biochemical; conditions: read-out: % Inhibition of 5α-reduction
T1 construct: expressed in transfected cells; host or cells: Rat-1A cells infected with pMV7 retrovirus; microsomes of these cells
T1 sequence (P18405 1-259): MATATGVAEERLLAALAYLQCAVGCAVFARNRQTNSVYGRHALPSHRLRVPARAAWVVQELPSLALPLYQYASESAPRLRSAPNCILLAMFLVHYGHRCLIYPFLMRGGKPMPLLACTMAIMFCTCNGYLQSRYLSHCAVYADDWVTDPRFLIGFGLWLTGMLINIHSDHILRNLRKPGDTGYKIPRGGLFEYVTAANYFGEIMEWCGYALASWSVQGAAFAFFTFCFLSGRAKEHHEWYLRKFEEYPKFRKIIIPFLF
From the text: (§1) The cDNAs for the human type 1 and 2 5α-reductases were isolated from human prostate λZAP II™ cDNA libraries using the published sequence of the 5α-reductases, PCR™ and standard library screening techniques (Sambrook et al., 1989). The type 1 and 2 cDNAs correspond to nucleotides 31-870 and 28-829, respectively, of the published sequences for these 5α-reductases (Anderson and Russell, 1990; Anderson et al., 1991). The type 1 and 2 cDNAs were subcloned into the retroviral expression vector pMV7 (Kirschmeier et al., 1988) and high titer stocks of virus containing the type 1 and 2 cDNAs were generated using the packaging cells BOSC 23 293 (Kirschmeier et al., 1988). Rat.-1A cells (Pear et al., 1993) were infected with virus (Topp, 1981) and cells containing integrated retrovirus were selected for G418-SO4 resistance, (Brown and Scott, 1987).
(§2) Microsomes were prepared as described previously (Liang and Liao, 1992) from the liver of adult Sprague-Dawley female rats or Rat-1A cells expressing a specific type of human 5α-reductase. […] The data presented was based on the rate of reaction.
(§3) The reaction was started by the addition of 25 μl of microsomes (25 μg protein). The mixture was incubated at 37° for 30-60 min and stopped by addition of 0.5 ml of ethyl acetate and mixing for 1 min. The organic solvent extract was removed under vacuum.

[4] = target: T2, human 5α-reductase isozyme type 2 (Homo sapiens, UniProt P31213); test: 4-[14C]testosterone reduction, human type 2 isozyme; type: biochemical; conditions: for inhibition at 1 µM / inhibition at 3 µM / inhibition at 10 µM / inhibition at 30 µM / inhibition at 100 µM: read-out: % Inhibition of 5α-reduction
T2 construct: expressed in transfected cells; host or cells: Rat-1A cells infected with pMV7 retrovirus; microsomes of these cells
T2 sequence (P31213 1-254): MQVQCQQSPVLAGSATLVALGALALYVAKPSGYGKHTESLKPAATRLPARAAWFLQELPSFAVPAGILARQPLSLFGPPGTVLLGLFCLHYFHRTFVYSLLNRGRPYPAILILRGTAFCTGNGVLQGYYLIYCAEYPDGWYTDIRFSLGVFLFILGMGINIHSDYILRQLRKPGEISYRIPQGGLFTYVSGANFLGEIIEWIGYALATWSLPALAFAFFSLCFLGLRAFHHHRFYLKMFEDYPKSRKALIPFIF
From the text: as §1, §2, §3

[5] = target: T1, human 5α-reductase isozyme type 1; test: [3H]4-MA binding, human type 1 isozyme expressed in Rat-1A cells; conditions: read-out: % Inhibition of [^3 H]4-MA binding
[6] = tested on: human breast tumor cell line, MDF-7; test: Human breast tumor growth in nude mice; type: in vivo; conditions: 1 mg/mouse/day, 2 weeks
Description: For breast tumor studies, human breast tumor cell line, MDF-7 (1 million cells) was injected into female nude mice. After 5 weeks, the tumor was over 1000 mm^3.

[7] = target: T3, α-Amylase of human saliva (Homo sapiens, UniProt P0DUB6); conditions: cited from earlier work
T3 construct: α-Amylase of human saliva; host or cells: human saliva

[8] = tested on: ventral prostate and preputial organ
From the text: Male Sprague-Dawley rats, 60±5 g body weight, were used. Each group had 6 rats, and all were castrated.

[9] = target: T2, human 5α-reductase isozyme type 2; test: [3H]4-MA binding, human type 2 isozyme expressed in Rat-1A cells; conditions: read-out: % Inhibition of [^3 H]4-MA binding
[10] = tested on: human liver microsomes 5α-reductase; conditions: vs rat liver microsomes
Description: Briefly, the binding assay solution, in a final volume of 0.15 ml, contained microsomes (2-20 μg of protein), 0.08 μCi of [^3 H]4-MA, 0.1 mM-NADPH, 1 mM-dithiothreitol and 50 mM-potassium phosphate, pH 7.0, with or without the indicated amount of a lipid or an inhibitor preparation. Lipids were dissolved in ethanol and added in 1-5 μl volumes. Control tubes received the same amount of ethanol. After incubation at 0° C. for 1 h, the [^3 H]4-MA bound to microsomes was determined by collecting microsomes on a Whatman GF/1F glass fibre filter and washing with 10 ml of 20 mM-potassium phosphate, pH 7.0, containing 0.01% CHAPS to remove unbound [^3 H]4-MA.
Microsomes were prepared at 4° C. from a buffered 0.32M-sucrose homogenate of human liver and from the livers of adult Sprague-Dawley female rats by differential centrifugation as described previously (Liang et al., 1990), and were used in the assay of 5α-reductase activity. In some experiments, microsomes were solubilized with 0.1% polyoxyethylene ether W-1 as described previously (Liang et al., 1990), except for the substitution of polyoxyethylene ether W-1 for Lubrol-WX.

[11] = tested on: 17β-steroid dehydrogenase; test: 4-Androstenedione formation from [3H]testosterone by PC-3 cells (17β-steroid dehydrogenase); type: cell-based, human
[12] = ethanol solution
[13] = tested on: LNCaP; test: cells; conditions: Homo sapiens, read-out: 5α-DHT formed (% of control)

T3 sequence (P0DUB6 16-511): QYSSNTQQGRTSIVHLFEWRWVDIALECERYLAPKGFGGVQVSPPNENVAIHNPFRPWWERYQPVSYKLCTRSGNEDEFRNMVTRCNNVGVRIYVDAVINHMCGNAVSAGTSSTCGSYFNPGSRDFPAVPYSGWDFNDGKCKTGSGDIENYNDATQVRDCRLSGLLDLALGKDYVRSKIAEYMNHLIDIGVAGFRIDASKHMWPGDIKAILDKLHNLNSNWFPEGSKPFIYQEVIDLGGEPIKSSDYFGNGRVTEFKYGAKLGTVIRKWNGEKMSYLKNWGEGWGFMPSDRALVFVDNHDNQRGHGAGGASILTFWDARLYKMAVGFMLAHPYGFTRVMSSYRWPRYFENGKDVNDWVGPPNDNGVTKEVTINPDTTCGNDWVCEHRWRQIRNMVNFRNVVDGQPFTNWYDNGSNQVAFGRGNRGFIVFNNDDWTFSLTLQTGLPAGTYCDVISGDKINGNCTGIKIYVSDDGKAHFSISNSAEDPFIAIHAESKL

O=C(O[C@@H]1Cc2c(O)cc(O)cc2O[C@@H]1c1cc(O)c(O)c(O)c1)c1cc(O)c(O)c(O)c1 [EGCG, (-)Epigallocatechin-3-gallate]
body weight decrease ([1]; 15 mg ip/day, 7 days): about 15%
coagulating gland weight ([1]; 15 mg ip/day, 7 days): 34 % of organ weight in normal rats
dorsolateral prostate weight ([1]; 15 mg ip/day, 7 days): 46 % of organ weight in normal rats
kidney weight ([1]; 15 mg ip/day, 7 days): 74 % of organ weight in normal rats
preputial gland weight ([1]; 15 mg ip/day, 7 days): 35 % of organ weight in normal rats
seminal vesicle weight ([1]; 15 mg ip/day, 7 days): 41 % of organ weight in normal rats
testis weight ([1]; 15 mg ip/day, 7 days): 84 % of organ weight in normal rats
ventral prostate weight ([1]; 15 mg ip/day, 7 days): 46 % of organ weight in normal rats
final body weight ([1]; 15 mg ip/day, 7 days, normal 232±10 g): 147 ± 14 g
final body weight reduction vs normal rats ([1]; end of study): about 36%
5α-DHT production by human prostate cancer cells [2]: reduced 5α-DHT production
inhibition at 1 µM [3]: 22%
inhibition at 3 µM [3]: 23%
inhibition at 10 µM [3]: 34%
inhibition at 30 µM [3]: 89%
inhibition at 100 µM [3]: 98%
activity on type 2 isozyme ([4]; enzymatic assay, concentrations below 30 μM for ECG/EGCG): did not inhibit the Type 2 isozyme
inhibition at 1 µM [4]: < 10%
inhibition at 3 µM [4]: < 10%
inhibition at 10 µM [4]: < 10%
inhibition at 30 µM [4]: < 10%
inhibition at 100 µM [4]: 73%
inhibition at 1 µM [5]: 29%
inhibition at 3 µM [5]: 47%
inhibition at 10 µM [5]: 77%
inhibition at 30 µM [5]: 88%
inhibition at 100 µM [5]: 86%
tumor reduction [6]: 50%
IC50 [7]: 50 to 500 µM
reduction of body weight increase ([8]; 5 mg ip daily, 14 days): about 35%
reduction of weights of ventral prostate and preputial organ ([8]; 5 mg ip daily, 14 days): 10 to 35%
fat content under the skin ([8]; rat, in vivo): appeared less
general health / organ appearance ([8]; rat, in vivo): appeared to be as healthy as rats in other groups
inhibition at 1 µM [9]: < 10%
inhibition at 3 µM [9]: 12%
inhibition at 10 µM [9]: 55%
inhibition at 30 µM [9]: 72%
inhibition at 100 µM [9]: 89%

CCCCC/C=C\C/C=C\C/C=C\CCCCC(=O)O [γ-Linolenic acid, γ-linolenic acid]
5α-DHT production by human prostate cancer cells [2]: can inhibit the conversion of testosterone to 5α-DHT
IC50 ([2]; Homo sapiens, LNCaP, read-out: IC50 with the prostate cancer cells): 10 ± 5 µM
inhibition at 1 µM [3]: 31%
inhibition at 3 µM [3]: 52%
inhibition at 10 µM [3]: 89%
inhibition at 30 µM [3]: 99%
inhibition at 1 µM [4]: 30%
inhibition at 3 µM [4]: 48%
inhibition at 10 µM [4]: 60%
inhibition at 30 µM [4]: 88%
inhibition at 100 µM [4]: 99%
inhibition at 1 µM [5]: 20%
inhibition at 3 µM [5]: 54%
inhibition at 10 µM [5]: 65%
inhibition at 30 µM [5]: 79%
inhibition at 100 µM [5]: 85%
inhibition of NADPH-dependent [^3 H]4-MA binding [10]: to the same degree as in experiments with rat liver microsomes
4-Androstendione formed (% of control) ([11]; 1 μM): 102 ± 6 % of control
4-Androstendione formed (% of control) ([11]; 5 μM): 110 ± 1 % of control
4-Androstendione formed (% of control) ([11]; 20 μM): 99 ± 2 % of control
effect on metabolism of testosterone to 4-androstenedione (17β-steroid dehydrogenase) ([11]; words): did not affect
oxidation products by TLC ([12]; 5 weeks of storage): two additional more polar products
changes of the compound by TLC ([12]; refrigerated for 3 weeks): no detectable changes
effect on body weight increase ([8]; 5 mg ip daily, 14 days): not EC or γ-LA
reduction of weights of ventral prostate and preputial organ ([8]; 5 mg ip daily, 14 days): 10 to 35%
general health / organ appearance ([8]; rat, in vivo): appeared to be as healthy as rats in other groups
activity at 50 µM [13]: 27%
activity at 100 µM [13]: 9 ± 4%
inhibition at 1 µM [9]: 22%
inhibition at 3 µM [9]: 49%
inhibition at 10 µM [9]: 63%
inhibition at 30 µM [9]: 72%
inhibition at 100 µM [9]: 88%
